Tests used:
[1] = molecular target: T1, tubulin; assay: quenching of intrinsic tryptophan fluorescence; assay type: binding, Capra hircus
T1 construct: tubulin purified from goat brain

[2] = molecular target: T1, tubulin; assay: quenching of intrinsic tryptophan fluorescence; gel filtration co-elution; curcumin displacement; polymerization inhibition; assay type: binding, Capra hircus

Kd [1] | Kd [2] | SMILES
5.2 ± 0.8 µM |  | COc1cc(/C=C/C(=O)CC(=O)/C=C/c2ccc(O)c(OC)c2)ccc1O [Curcumin]
 | 2.8 ± 1 µM | COc1cc(/C=C/C(=O)C(=CC2CCN(C(=O)OC(C)(C)C)CC2)C(=O)/C=C/c2ccc(O)c(OC)c2)ccc1O [C1, 4-{5-(4-hydroxy-3-methoxy-phenyl)-2-[3-(4-hydroxy-3-methoxy-phenyl)-acryloyl]-3-oxo-penta-1,4-dienyl}-piperidine-1-carboxylic acid tert-butyl ester]

Source: publication PMC4847174, “C1, a highly potent novel curcumin derivative, binds to tubulin, disrupts microtubule network and induces apoptosis” (Bioscience Reports, 2016)
